Laboratory results published in patent US10683276B2, “Heterocycle-substituted bicyclic azole pesticides” (FMC Corporation, priority 2015, dated 2020).

Legend:
Type in all cases: in vivo
[1] = system: sweetpotato whitefly (Bemisia tabaci (Gennadius)); assay: Test E: control of sweetpotato whitefly, spray on cotton plant; conditions: sprayed at 50 ppm; eggs on cotton plant; assessed after 13 days
Procedure: (§1) Test compounds were formulated using a solution containing 10% acetone, 90% water and 300 ppm X-77® Spreader Lo-Foam Formula non-ionic surfactant containing alkylarylpolyoxyethylene, free fatty acids, glycols and isopropanol (Loveland Industries, Inc. Greeley, Colo., USA). The formulated compounds were applied in 1 mL of liquid through a SUJ2 atomizer nozzle with ⅛ JJ custom body (Spraying Systems Co. Wheaton, Ill., USA) positioned 1.27 cm (0.5 inches) above the top of each test unit. Test compounds were sprayed at the rates indicated, and each test was replicated three times.
For evaluating control of the sweetpotato whitefly (Bemisia tabaci (Gennadius)) through contact and/or systemic means, the test unit consisted of a small open container with a 12-14-day-old cotton plant inside. Prior to the spray application, both cotyledons were removed from the plant, leaving one true leaf for the assay. Adult whiteflies were allowed to lay eggs on the plant and then were removed from the test unit. Cotton plants infested with at least 15 eggs were submitted to the test for spraying.
Test compounds were formulated and sprayed at 250 and/or 50 ppm. After spraying, the test units were allowed to dry for 1 hour. […] Each test unit was then visually assessed for insect mortality.

[2] = system: diamondback moth (Plutella xylostella (L.)); assay: Test A: control of diamondback moth, foliar spray on mustard plant; conditions: sprayed at 250 ppm; neonate larvae on mustard plant; assessed after 6 days
Procedure: as §1
For evaluating control of diamondback moth (Plutella xylostella (L.)) the test unit consisted of a small open container with a 12-14-day-old mustard plant inside. This was pre-infested with ˜50 neonate larvae that were dispensed into the test unit via corn cob grits using an inoculator. The larvae moved onto the test plant after being dispensed into the test unit.
Test compounds were formulated and sprayed at 250 and/or 50 ppm. After spraying of the formulated test compound, each test unit was allowed to dry for 1 hour and then a black, screened cap was placed on top. The test units were held for 6 days in a growth chamber at 25° C. and 70% relative humidity. Plant feeding damage was then visually assessed based on foliage consumed, and larvae were assessed for mortality.

[3] = system: Western Flower Thrips (Frankliniellla occidentalis (Pergande)); assay: Test F: control of Western Flower Thrips, spray on Soleil bean plant; conditions: sprayed at 250 ppm; adult thrips on Soleil bean plant; held for 6 days
Procedure: For evaluating control of the Western Flower Thrips (Frankliniellla occidentalis (Pergande)) through contact and/or systemic means, the test unit consisted of a small open container with a 5-7-day-old Soleil bean plant inside.
Test compounds were formulated and sprayed at 250 and/or 50 ppm. After spraying, the test units were allowed to dry for 1 hour, and then 22-27 adult thrips were added to each unit. A black, screened cap was placed on top, and the test units were held for 6 days at 25° C. and 45-55% relative humidity.

[4] = system: green peach aphid (Myzus persicae (Sulzer)); assay: Test C: control of green peach aphid, spray on radish plant; conditions: 144 h, sprayed at 50 ppm, assessed after 6 days
Procedure: as §1
For evaluating control of green peach aphid (Myzus persicae (Sulzer)) through contact and/or systemic means, the test unit consisted of a small open container with a 12-15-day-old radish plant inside. This was pre-infested by placing on a leaf of the test plant 30-40 aphids on a piece of leaf excised from a culture plant (cut-leaf method). The aphids moved onto the test plant as the leaf piece desiccated. After pre-infestation, the soil of the test unit was covered with a layer of sand.
Test compounds were formulated and sprayed at 250 and/or 50 ppm. After spraying of the formulated test compound, each test unit was allowed to dry for 1 hour and then a black, screened cap was placed on top. […] Each test unit was then visually assessed for insect mortality.

[5] = system: cotton melon aphid (Aphis gossypii (Glover)); assay: Test D: control of cotton melon aphid, spray on cotton plant; conditions: 144 h, sprayed at 50 ppm, assessed after 6 days
Procedure: as §1
For evaluating control of cotton melon aphid (Aphis gossypii (Glover)) through contact and/or systemic means, the test unit consisted of a small open container with a 6-7-day-old cotton plant inside. This was pre-infested with 30-40 insects on a piece of leaf according to the cut-leaf method, and the soil of the test unit was covered with a layer of sand.
Test compounds were formulated and sprayed at 250 and/or 50 ppm. After spraying, the test units were maintained in a growth chamber for 6 days at 19° C. and 70% relative humidity. Each test unit was then visually assessed for insect mortality.

## CC(C)(NC(=O)c1cccc2nn(-c3cccnc3)cc12)C(=O)NCc1ccccn1 [Compound 26]
[1]
  mortality: at least 50%

## CN(C)C(=O)C(C)(C)NC(=O)C(C)(C)NC(=O)c1cccc2nn(-c3cccnc3)cc12 [Compound 2]
[2]
  control efficacy (40% or less feeding damage and/or 100% mortality): very good to excellent levels of control efficacy

## CON(C)C(=O)C(C)(C)NC(=O)c1cccc2nn(-c3cccnc3)cc12 [Compound 47]
[3]
  control efficacy (30% or less plant damage and/or 100% mortality): very good to excellent levels of control efficacy

## CC(C)(NC(=O)c1cccc2nn(-c3cccnc3)cc12)C(=O)NC1CCC1 [Compound 43]
[3]
  control efficacy (30% or less plant damage and/or 100% mortality): very good to excellent levels of control efficacy

## CC(C)(NC(=O)c1cccc2nn(-c3cccnc3)cc12)C(=O)NCc1ccccc1 [Compound 25, N-[1,1-dimethyl-2-oxo-2-[(phenylmethyl)amino]ethyl]-2-(3-pyridinyl)-2H-indazole-4-carboxamide]
[4]
  mortality at 50 ppm: ≥ 80%
[5]
  mortality at 50 ppm: ≥ 80%

## CONC(=O)C(C)(C)NC(=O)c1cccc2nn(-c3cccnc3)cc12 [Compound 48]
[3]
  control efficacy (30% or less plant damage and/or 100% mortality): very good to excellent levels of control efficacy
